The values below are quoted from earlier work in article PMC10552101 (ACS Omega, 2023).

The structures appear in SMILES notation.

For the molecule `CNC1CC(c2ccc(Cl)c(Cl)c2)c2ccccc21` (stereo not shown) [LU-19-005, indatraline], the onset entry is “slow onset”.
